According to PubChem BioAssay AID256 (DTP/NCI, 2004):
Values joined by “and” are separate entries in the source; they are usually repeats but may differ in a detail not shown here. Equal values may be shown once. Inconclusive results and toxic doses are left out. Rule for the calls: active = survival T/C of 150% or more; inactive = T/C below 125% in these data.

System: CD2F1 mice, L1210 leukemia ip, survival T/C
Assay: NCI In Vivo Anticancer Drug Screen. Data for tumor model L1210 Leukemia (intraperitoneal) in CD2F1 (CDF1) mice
Details: higher = longer survival
Outline: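 Each value reflects a quotient of treated over vehicle control outcomes in mice with a transplanted tumor.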

[1] = endpoint: mean survival time, dose: 100.0 mg/kg/injection, schedule: Q01DX009 (ip), vehicle: saline with Tween-80
[2] = endpoint: mean survival time, dose: 100.0 mg/kg/injection, schedule: Q04DX003 (ip), vehicle: saline with Tween-80
[3] = endpoint: mean survival time, dose: 200.0 mg/kg/injection, schedule: Q01DX009 (ip), vehicle: saline with Tween-80
[4] = endpoint: mean survival time, dose: 200.0 mg/kg/injection, schedule: Q04DX003 (ip), vehicle: saline with Tween-80
[5] = endpoint: mean survival time, dose: 400.0 mg/kg/injection, schedule: Q01DX009 (ip), vehicle: saline with Tween-80
[6] = endpoint: mean survival time, dose: 400.0 mg/kg/injection, schedule: Q04DX003 (ip), vehicle: saline with Tween-80
[7] = endpoint: mean survival time, dose: 100.0 mg/kg/injection, schedule: Q01DX001 (ip), vehicle: saline
[8] = endpoint: mean survival time, dose: 200.0 mg/kg/injection, schedule: Q01DX001 (ip), vehicle: saline
[9] = endpoint: mean survival time, dose: 400.0 mg/kg/injection, schedule: Q01DX001 (ip), vehicle: saline
[10] = endpoint: mean survival time, dose: 100.0 mg/kg/injection, schedule: Q04DX002 (ip), vehicle: saline with Tween-80
[11] = endpoint: mean survival time, dose: 200.0 mg/kg/injection, schedule: Q04DX002 (ip), vehicle: saline with Tween-80
[12] = endpoint: mean survival time, dose: 100.0 mg/kg/injection, schedule: Q01DX009 (ip), vehicle: Klucel (hydroxypropylcellulose) (HPC)
[13] = endpoint: mean survival time, dose: 200.0 mg/kg/injection, schedule: Q01DX009 (ip), vehicle: Klucel (hydroxypropylcellulose) (HPC)
[14] = endpoint: mean survival time, dose: 400.0 mg/kg/injection, schedule: Q01DX001 (ip), vehicle: other
[15] = endpoint: mean survival time, dose: 50.0 mg/kg/injection, schedule: Q01DX009 (ip), vehicle: saline with Tween-80
[16] = endpoint: mean survival time, dose: 100.0 mg/kg/injection, schedule: Q04DX003 (ip), vehicle: saline
[17] = endpoint: mean survival time, dose: 200.0 mg/kg/injection, schedule: Q04DX003 (ip), vehicle: saline
[18] = endpoint: mean survival time, dose: 400.0 mg/kg/injection, schedule: Q04DX003 (ip), vehicle: saline

Measured: T/C

CCCCCCCC(=O)O[C@H]1[C@H]2[C@@H](CC1(C)C)C(=O)[C@]13O[C@H]1C(=O)[C@]1(CO1)[C@]23C
inactive: endpoint: median survival time, dose: 1.25 mg/kg/injection, schedule: Q01DX009 (ip), vehicle: saline with Tween-80 101 % of control | endpoint: median survival time, dose: 2.5 mg/kg/injection, schedule: Q01DX009 (ip), vehicle: saline with Tween-80 104 % of control | endpoint: median survival time, dose: 5.0 mg/kg/injection, schedule: Q01DX009 (ip), vehicle: saline with Tween-80 104 % of control | endpoint: median survival time, dose: 10.0 mg/kg/injection, schedule: Q01DX009 (ip), vehicle: saline with Tween-80 107 % of control | endpoint: median survival time, dose: 20.0 mg/kg/injection, schedule: Q01DX009 (ip), vehicle: saline with Tween-80 107 % of control

NC(=S)Nc1ccc(C(=O)O)cc1
inactive: [1] 96 % of control | [2] 93 % of control | [3] 100 % of control | [4] 94 % of control | [5] 86 % of control | [6] 90 % of control

CCOC(=O)C=C(c1ccc(OC)c(OC)c1)c1ccc(OC)c(OC)c1
inactive: [7] 108 % of control | [8] 100 % of control | [9] 102 % of control

O=C(COc1ccc(F)cc1)OCCOC(=O)COc1ccc(F)cc1
inactive: [10] 100 % of control | [11] 95 % of control

O=C(NCO)c1ccccc1
inactive: endpoint: mean survival time, dose: 50.0 mg/kg/injection, schedule: Q01DX009 (ip), vehicle: Klucel (hydroxypropylcellulose) (HPC) 96 % of control | [12] 96 % of control | [13] 96 % of control

NC(N)=NC(N)=Nc1ccc(-c2ccc(N=C(N)N=C(N)N)cc2)cc1
inactive: endpoint: mean survival time, dose: 0.78 mg/kg/injection, schedule: Q01DX009 (ip), vehicle: saline 100 % of control | endpoint: mean survival time, dose: 1.56 mg/kg/injection, schedule: Q01DX009 (ip), vehicle: saline 105 % of control | endpoint: mean survival time, dose: 3.13 mg/kg/injection, schedule: Q01DX009 (ip), vehicle: saline 102 % of control | endpoint: mean survival time, dose: 6.25 mg/kg/injection, schedule: Q01DX009 (ip), vehicle: saline 111 % of control | endpoint: mean survival time, dose: 12.5 mg/kg/injection, schedule: Q01DX009 (ip), vehicle: saline 104 % of control | endpoint: mean survival time, dose: 25.0 mg/kg/injection, schedule: Q01DX009 (ip), vehicle: saline 111 % of control

O=C(/C=C\c1ccccc1)/C=C/c1ccccc1
inactive: endpoint: mean survival time, dose: 177.0 mg/kg/injection, schedule: Q01DX001 (ip), vehicle: other 96 % of control | endpoint: mean survival time, dose: 267.0 mg/kg/injection, schedule: Q01DX001 (ip), vehicle: other 92 % of control | [14] 104 % of control | endpoint: mean survival time, dose: 600.0 mg/kg/injection, schedule: Q01DX001 (ip), vehicle: other 107 % of control

O=C(O)CCN1CCS(=O)(=O)C1=S
inactive: endpoint: mean survival time, dose: 75.0 mg/kg/injection, schedule: Q01DX001 (ip), vehicle: other 101 % of control | endpoint: mean survival time, dose: 150.0 mg/kg/injection, schedule: Q01DX001 (ip), vehicle: other 95 % of control | endpoint: mean survival time, dose: 300.0 mg/kg/injection, schedule: Q01DX001 (ip), vehicle: other 104 % of control

Cc1c(Br)c(=O)[nH]c2ccccc12
inactive: [1] 96 % of control | [2] 101 % of control | [3] 96 % of control | [4] 98 % of control | [5] 94 % of control | [6] 101 % of control

COc1cccc(CCNC(=O)CCN2C(=O)CCC2=O)c1
inactive: [1] 98 % of control | endpoint: mean survival time, dose: 100.0 mg/kg/injection, schedule: Q04DX003 (ip), vehicle: saline sonified 101 % of control | [3] 93 % of control | endpoint: mean survival time, dose: 200.0 mg/kg/injection, schedule: Q04DX003 (ip), vehicle: saline sonified 98 % of control | [5] 100 % of control | endpoint: mean survival time, dose: 400.0 mg/kg/injection, schedule: Q04DX003 (ip), vehicle: saline sonified 104 % of control

Cc1ccc(NC(=O)Nc2cccc(C(=O)O)c2)cc1[N+](=O)[O-]
inactive: [15] 94 % of control | [1] 98 % of control | [3] 98 % of control

NOCc1csc(NC(=O)Nc2ccccc2)n1
inactive: endpoint: mean survival time, dose: 18.8 mg/kg/injection, schedule: Q01DX001 (ip), vehicle: saline with Tween-80 110 % of control | endpoint: mean survival time, dose: 18.8 mg/kg/injection, schedule: Q04DX003 (ip), vehicle: saline with Tween-80 98 % of control | endpoint: mean survival time, dose: 37.5 mg/kg/injection, schedule: Q01DX001 (ip), vehicle: saline with Tween-80 112 % of control | endpoint: mean survival time, dose: 37.5 mg/kg/injection, schedule: Q04DX003 (ip), vehicle: saline with Tween-80 98 % of control | endpoint: mean survival time, dose: 75.0 mg/kg/injection, schedule: Q01DX001 (ip), vehicle: saline with Tween-80 96 % of control | endpoint: mean survival time, dose: 75.0 mg/kg/injection, schedule: Q04DX003 (ip), vehicle: saline with Tween-80 98 % of control

CC(=O)Oc1ccccc1O
inactive: endpoint: median survival time, dose: 12.5 mg/kg/injection, schedule: Q01DX009 (ip), vehicle: saline + Tween-80 + alcohol 96 % of control and 103 % of control | endpoint: median survival time, dose: 25.0 mg/kg/injection, schedule: Q01DX009 (ip), vehicle: saline + Tween-80 + alcohol 101 % of control and 109 % of control

CNC(=O)Nc1cc(C)ccc1OC
inactive: endpoint: mean survival time, dose: 50.0 mg/kg/injection, schedule: Q01DX009 (ip), vehicle: saline 106 % of control | endpoint: mean survival time, dose: 100.0 mg/kg/injection, schedule: Q01DX009 (ip), vehicle: saline 101 % of control | endpoint: mean survival time, dose: 200.0 mg/kg/injection, schedule: Q01DX009 (ip), vehicle: saline 107 % of control

C/C=C/c1cnc(N)nc1-c1ccccc1
inactive: [10] 101 % of control | [11] 96 % of control | endpoint: mean survival time, dose: 400.0 mg/kg/injection, schedule: Q04DX002 (ip), vehicle: saline with Tween-80 96 % of control

CC[Si](CC)(CC)c1ccc(CCNCCS)s1
inactive: endpoint: mean survival time, dose: 37.5 mg/kg/injection, schedule: Q01DX009 (ip), vehicle: saline 107 % of control | endpoint: mean survival time, dose: 75.0 mg/kg/injection, schedule: Q01DX009 (ip), vehicle: saline 101 % of control

NP(N)(=O)c1ccccc1
inactive: [16] 94 % of control | [17] 98 % of control | [18] 94 % of control

COc1ccc(N2C(=O)CSC2=S)cc1
inactive: [2] 102 % of control | [4] 96 % of control | [6] 102 % of control

COC(=O)C1=CCC=CC1
inactive: [1] 104 % of control | [3] 104 % of control

C#CCOC1CCCCC1O (stereo unspecified)
inactive: endpoint: mean survival time, dose: 100.0 mg/kg/injection, schedule: Q04DX003 (ip), vehicle: acetone 101 % of control

C/C=C/CC(C/C=C/C)C1CC[N-]CC1.C/C=C/CC(C/C=C/C)C1CC[N-]CC1.[Cl][Pt+2]([Cl])([Cl])[Cl]
inactive: endpoint: mean survival time, dose: 12.5 mg/kg/injection, schedule: Q01DX009 (ip), vehicle: other 93 % of control | endpoint: mean survival time, dose: 100.0 mg/kg/injection, schedule: Q01DX009 (ip), vehicle: other 88 % of control

O=[As](O)(O)CC(Br)CBr (stereo unspecified)
inactive: [1] 100 % of control | [3] 94 % of control

Cc1cc(C)c(O)c(C(=O)CC2CC(=O)NC(=O)C2)c1
inactive: [1] 100 % of control | [2] 95 % of control | [3] 105 % of control | [4] 97 % of control | [5] 101 % of control | [6] 95 % of control

O=C(NC(=O)c1ccccc1)NC1=C(Cl)C(=O)c2ccccc2C1=O
inactive: endpoint: mean survival time, dose: 100.0 mg/kg/injection, schedule: Q01DX001 (ip), vehicle: other 106 % of control | endpoint: mean survival time, dose: 200.0 mg/kg/injection, schedule: Q01DX001 (ip), vehicle: other 104 % of control | [14] 109 % of control

CCN(CC)CCCC(C)(NCc1ccccc1)[P+](=O)O (stereo unspecified)
inactive: [1] 90 % of control | [16] 96 % of control | [3] 86 % of control | [17] 91 % of control | [5] 94 % of control | [18] 94 % of control

CCCCCCCCCCCCCCOc1ccc(C(=O)O)cc1
inactive: [12] 93 % of control | [2] 91 % of control | [13] 93 % of control | [4] 90 % of control | endpoint: mean survival time, dose: 400.0 mg/kg/injection, schedule: Q01DX009 (ip), vehicle: Klucel (hydroxypropylcellulose) (HPC) 93 % of control | [6] 88 % of control

CC(=O)Nc1c([N+](=O)[O-])cc2c3c(cccc13)C=C2
inactive: [2] 95 % of control | [4] 92 % of control | [6] 104 % of control

COc1cc(OC)c(NC(=O)OCCSc2ccc(Cl)cc2)cc1Cl
inactive: [15] 92 % of control | [1] 92 % of control | [3] 92 % of control

c1ccc(OCCSc2ccccc2)cc1
inactive: [7] 102 % of control | [8] 104 % of control | [9] 104 % of control
